Where two headings read alike, the source gives them in different places. Where a SMILES comes first, the peptide text is derived from it.
Key:
[1] = test system: Escherichia coli ATCC 25922
Outline: (§1)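 Two-fold serial dilutions of peptide, in water with polysorbate 80 (0.002% final), met bacteria adjusted to 0.5 McFarland then diluted to about 5×10^5 CFU/mL. Medium was cation-adjusted Mueller-Hinton II broth; peptide stocks were 1 mg/mL in sterile water.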

[2] = test system: Escherichia coli MCR-1 Af 45; conditions: Mueller-Hinton broth II, no visible growth after 18-20 hours at 35° C.
Outline: as §1

[3] = test system: Klebsiella pneumoniae SSI3010
Outline: as §1

[4] = test system: human red blood cells (hRBC); format: cell-based
Outline: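 PBS-washed human erythrocytes (20% v/v) were incubated with compounds at 200 μg/mL for 1 h at 37° C with shaking. Supernatant OD540 was read after 8-fold dilution; hemolysis % = OD540 peptide / OD540 of the 100% lysis control (2.5% Triton X-100 in H2O) ×100, with PBS as 0%.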

[5] = red cells of human, 1 h, 0.2 g/L
[6] = Mueller-Hinton broth II, no visible growth after 18-20 hours at 35° C.

Compound | Escherichia coli ATCC 25922 MIC ([1]; ATCC 25922) [µg/mL] | Escherichia coli MCR-1 Af 45 MIC [2] [µg/mL] | Klebsiella pneumoniae SSI3010 MIC ([3]; SSI3010) [µg/mL] | Hemolysis at 0.2 g/L [4, 5] [%] | Escherichia coli ATCC 25922 MIC [1, 6] [µg/mL] | Klebsiella pneumoniae SSI3010 MIC [3, 6] [µg/mL] | Hemolysis at 0.2 g/L [4] [%]
CC[C@H](C)[C@H](NC(=O)[C@@H]1C[C@@H](N)CN1C(=O)[C@@H](N)C(C)C)C(=O)N[C@H](C(=O)N[C@@H](Cc1ccc(O)cc1)C(=O)N[C@@H]1C(=O)N[C@@H](CC(N)=O)C(=O)N[C@@H](CCCNC(=N)N)C(=O)N[C@@H](CCN)C(=O)N[C@@H]([C@@H](C)O)C(=O)N[C@H](CCN)C(=O)N[C@@H](CCCNC(N)=O)C(=O)N[C@H](C(=O)N[C@@H](CCN)C(=O)N[C@H](C(=O)N[C@@H](Cc2ccc(O)cc2)C(=O)O)[C@@H](C)O)CSSC1(C)C)[C@@H](C)O [Example 116, Val-Pro((4R)NH2)-Ile-Thr-Tyr-Pen-Asn-Arg-Dab-Thr-^DDab-Cit-Cys-Dab-Thr-Tyr] (HELM PEPTIDE1{V.[N[C@@H]1C[C@@H](C(=O)[*:2])N([*:1])C1].I.T.Y.[Pen].N.R.[Dab].T.[NCC[C@@H](N[*:1])C(=O)[*:2]].[Cit].C.[Dab].T.Y}$PEPTIDE1,PEPTIDE1,6:R3-13:R3$$$V2.0) | 0.25 | 0.25 | 0.5 | <1 |  |  | 
Val-NalloThr-Ile-Thr-Tyr-Pen-Asn-Arg-Dab-Thr-^DDab-Lys-Cys-Dab-Arg-Tyr [Example 133] |  | 0.25 |  |  | 0.25 | 0.5 | <1
CC[C@H](C)[C@H](NC(=O)[C@@H](NC(=O)[C@@H]1C[C@@H](O)CN1C(=O)[C@@H](N)C(C)C)[C@@H](C)CC)C(=O)N[C@@H](Cc1ccc(O)cc1)C(=O)N[C@@H]1C(=O)N[C@@H](CC(N)=O)C(=O)N[C@@H](CCCNC(=N)N)C(=O)N[C@@H](CCN)C(=O)N[C@@H](CO)C(=O)N[C@H](CCN)C(=O)N[C@@H](CCCCN)C(=O)N[C@H](C(=O)N[C@@H](CCN)C(=O)N[C@@H](CCN)C(=O)N[C@@H](Cc2ccc(O)cc2)C(=O)O)CSSC1(C)C [Example 76, Val-Hyp-Ile-Ile-Tyr-Pen-Asn-Arg-Dab-Ser-^DDab-Lys-Cys-Dab-Dab-Tyr] (HELM PEPTIDE1{V.[Hyp].I.I.Y.[Pen].N.R.[Dab].S.[NCC[C@@H](N[*:1])C(=O)[*:2]].K.C.[Dab].[Dab].Y}$PEPTIDE1,PEPTIDE1,6:R3-13:R3$$$V2.0) | 0.0625 | 0.0625 | 0.25 | <1 |  |  | 
CC[C@H](C)[C@H](NC(=O)[C@@H](NC(=O)[C@@H]1C[C@@H](O)CN1C(=O)[C@@H](N)C(C)C)[C@@H](C)CC)C(=O)N[C@@H](Cc1ccc(O)cc1)C(=O)N[C@@H]1C(=O)N[C@@H](CC(N)=O)C(=O)N[C@@H](CCCNC(=N)N)C(=O)N[C@@H](CCN)C(=O)N[C@@H]([C@@H](C)O)C(=O)N[C@H](CCN)C(=O)N[C@@H](CCCCN)C(=O)N[C@H](C(=O)N[C@@H](CCN)C(=O)N[C@@H](CCN)C(=O)N[C@@H](Cc2ccc(O)cc2)C(=O)O)CSSC1(C)C [Example 74, Val-Hyp-Ile-Ile-Tyr-Pen-Asn-Arg-Dab-Thr-^DDab-Lys-Cys-Dab-Dab-Tyr] (HELM PEPTIDE1{V.[Hyp].I.I.Y.[Pen].N.R.[Dab].T.[NCC[C@@H](N[*:1])C(=O)[*:2]].K.C.[Dab].[Dab].Y}$PEPTIDE1,PEPTIDE1,6:R3-13:R3$$$V2.0) | 0.125 | 0.0625 | 0.25 | <1 |  |  | 
CC[C@H](C)[C@H](NC(=O)[C@@H]1C[C@@H](Oc2ccccc2)CN1C(=O)[C@@H](N)C(C)C)C(=O)N[C@H](C(=O)N[C@@H](Cc1ccc(O)cc1)C(=O)N[C@@H]1C(=O)N[C@@H](CC(N)=O)C(=O)N[C@@H](CCCNC(=N)N)C(=O)N[C@@H](CCN)C(=O)N[C@@H]([C@@H](C)O)C(=O)N[C@H](CCN)C(=O)N[C@@H](CCCCN)C(=O)N[C@H](C(=O)N[C@@H](CCN)C(=O)N[C@@H](CCCNC(=N)N)C(=O)N[C@@H](Cc2ccc(O)cc2)C(=O)O)CSSC1(C)C)[C@@H](C)O [Example 129, Val-Pro(4,4F2)-Ile-Thr-Tyr-Pen-Asn-Arg-Dab-Thr-^DDab-Lys-Cys-Dab-Arg-Tyr] (HELM PEPTIDE1{V.[O=C([C@@H]1C[C@@H](Oc2ccccc2)CN1[*:1])[*:2]].I.T.Y.[Pen].N.R.[Dab].T.[NCC[C@@H](N[*:1])C(=O)[*:2]].K.C.[Dab].R.Y}$PEPTIDE1,PEPTIDE1,6:R3-13:R3$$$V2.0) | 0.125 | 0.0625 | 0.5 | <1 |  |  | 
CC[C@H](C)[C@H](NC(=O)[C@@H]1C[C@@H](N)CN1C(=O)[C@@H](N)C(C)C)C(=O)N[C@H](C(=O)N[C@@H](Cc1ccc(O)cc1)C(=O)N[C@@H]1C(=O)N[C@@H](CC(N)=O)C(=O)N[C@@H](CCCNC(=N)N)C(=O)N[C@@H](CCN)C(=O)N[C@@H]([C@@H](C)O)C(=O)N[C@H](CCN)C(=O)N[C@@H](CCCCN)C(=O)N[C@H](C(=O)N[C@@H](CO)C(=O)N[C@@H](CCCNC(=N)N)C(=O)N[C@@H](Cc2ccc(O)cc2)C(=O)O)CSSC1(C)C)[C@@H](C)O [Example 110, Val-Pro((4R)NH2)-Ile-Thr-Tyr-Pen-Asn-Arg-Dab-Thr-^DDab-Lys-Cys-Ser-Arg-Tyr] (HELM PEPTIDE1{V.[N[C@@H]1C[C@@H](C(=O)[*:2])N([*:1])C1].I.T.Y.[Pen].N.R.[Dab].T.[NCC[C@@H](N[*:1])C(=O)[*:2]].K.C.S.R.Y}$PEPTIDE1,PEPTIDE1,6:R3-13:R3$$$V2.0) | 0.5 | 0.125 | 0.5 | <1 |  |  | 
CC[C@H](C)[C@@H]1NC(=O)[C@@H](NC(=O)[C@H](Cc2ccc(O)cc2)NC(=O)[C@@H](NC(=O)[C@@H](NC(=O)[C@@H]2C[C@@H](O)CN2C(=O)[C@@H](N)C(C)C)[C@@H](C)CC)[C@@H](C)O)C(C)(C)SSC[C@@H](C(=O)N[C@@H](CCN)C(=O)N[C@@H](CCCNC(C)C)C(=O)N[C@@H](Cc2ccc(O)cc2)C(=O)O)NC(=O)[C@H](CCCCN)NC(=O)[C@@H](CCN)NC(=O)[C@H]([C@@H](C)O)NC(=O)[C@H](CCN)NC(=O)[C@H](CCCNC(=N)N)NC1=O [Example 137, Hyp-Ile-Thr-Tyr-Pen-Ile-Arg-Dab-Thr-^DDab-Lys-Cys-Dab-Orn(iPr)-Tyr] (HELM PEPTIDE1{V.[Hyp].I.T.Y.[Pen].I.R.[Dab].T.[NCC[C@@H](N[*:1])C(=O)[*:2]].K.C.[Dab].[CC(C)NCCC[C@H](N[*:1])C(=O)[*:2]].Y}$PEPTIDE1,PEPTIDE1,6:R3-13:R3$$$V2.0) | 0.125 | 0.125 | 0.25 | <1 |  |  | 

Reference: patent US20240228555A9, “ANTIMICROBIAL PEPTIDOMIMETICS” (Basilea Pharmaceutica International AG, Allschwil, priority 2020, published 2024)
